Results published in patent US8461160B2, “Dihydropyrimidinones” (Hoffmann-La Roche, Inc., priority 2009, dated 2013).

Molecular target: T1, BACE2 (Homo sapiens, UniProt Q9Y5Z0)
T1 construct: BACE2 enzyme ectodomain (derived from plasmid “pET17b-T7-hu proBACE2”) was prepared as described in Ostermann et al; T7 tag (N); made in house
T1 sequence (Q9Y5Z0 21-473 limits assumed): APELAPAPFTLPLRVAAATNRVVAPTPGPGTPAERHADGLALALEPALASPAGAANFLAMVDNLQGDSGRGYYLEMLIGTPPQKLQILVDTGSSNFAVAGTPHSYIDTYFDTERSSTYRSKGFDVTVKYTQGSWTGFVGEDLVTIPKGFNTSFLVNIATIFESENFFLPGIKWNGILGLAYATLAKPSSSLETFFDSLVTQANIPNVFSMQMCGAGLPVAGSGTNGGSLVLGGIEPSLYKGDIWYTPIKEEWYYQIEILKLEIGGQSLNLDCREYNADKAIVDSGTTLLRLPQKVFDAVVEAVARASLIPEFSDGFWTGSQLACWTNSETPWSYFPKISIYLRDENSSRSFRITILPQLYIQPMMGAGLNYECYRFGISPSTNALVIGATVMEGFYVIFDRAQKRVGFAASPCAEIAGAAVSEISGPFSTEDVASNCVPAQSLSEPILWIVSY
Assay: Fluorescent-peptide cleavage assay for BACE2 inhibition
Format: biochemical
Conditions: BACE2 enzyme ectodomain, fluorescent peptide WS EVNLD AEFRC-MR121, assay buffer pH 4.5, room temperature
In short: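 Pro-enzyme BACE2 was activated at 80 nM for 1 h at room temperature in 100 mM Na-acetate, 20 mM EDTA, 0.05% BSA, pH 4.5, then preincubated 10 min with compound. IC50 from sigmoidal dose-response fit.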

## CN1C(=O)C[C@]2(CCc3ccc(NC(=O)c4ncccc4C(F)(F)F)cc32)N=C1N [Example 130, N-[(1S)-2′-amino-1′-methyl-6′-oxo-2,3,5′,6′-tetrahydro-1′H-spiro[indene-1,4′-pyrimidin]-6-yl]-3-trifluoromethyl-pyridine-2-carboxamide]
  IC50: 1340 nM
